# In patent US12264163B2, “Compounds and methods for treating fibrotic pathologies” (Mayo Foundation for Medical Education and Research, priority 2019, dated 2025):
# Tested on: Collagen I and Fibronectin
# Test: Immuno-ECM: TGFβ-induced collagen I and fibronectin accumulation
# Format: cell-based, human
# Settings: IPF patient-derived fibroblasts, TGFβ 48 hours then DHX 24 hours
# Protocol: IPF patient-derived fibroblasts grown at confluence were pre-stimulated with 2 ng/mL TGFβ for 48 hours and then treated with DHX (10 μM)+2 ng/mL TGFβ for an additional 24 hours prior to fixation. Cell derived matrix is measured using antibodies for Collagen I and Fibronectin. […] Representative traction maps are shown from cells plated onto 6.4 kPa matrices treated with the indicated concentration of DHX. RMS tractions were determined in two independent experiments; box and whisker plots show min to max, quartile, and mean from one representative experiment (****p<0.0001, *p<0.05 vs. 0.1% DMSO vehicle control).
# Immuno-ECM Adapting from previously published methods, IPF patient-derived fibroblasts were plated to confluence in clear-bottom 96-well plates. After cells attached, the medium was swapped for EMEM containing 0.10% FBS±2 ng/mL TGF-β. After 48 hours the indicated concentration of DHX or DMSO control was added to each well and incubated for 24 hours. WST-1 viability reagent was added to each well (Sigma-Aldrich) and measured on a Flexstation 3 (Molecular Devices) plate reader. […] Plates were imaged via a Li-Cor OdysseyXL system with quantification performed via densitometry. Data are expressed as IR intensity relative to WST-1 signal absorbance in order to account for any potential compound toxicity.
compound,measurement,value
Oc1cc2c(cc1O)[C@H]1c3ccccc3CN[C@@H]1CC2 (racemic) [Dihydrexidine],TGFβ-stimulated accumulation of collagen I and fibronectin,dose-dependently reversed
